How the values were obtained:
VCaP cells = test: Cellular growth inhibition assay for VCaP cells (CellTiter-Glo, 72 hours); format: cell-based, human; details: Homo sapiens, VCaP, 72 h
Procedure, shortened: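 Luminescent viability signal after 72 h of compound exposure gave GI50 values by four-parameter nonlinear regression. Compounds were added in 0.5% DMSO to cells plated 24 h earlier at 5000/well in DMEM containing 10% FBS.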

T47D cells = test: Cellular growth inhibition assay for T47D cells (CellTiter-Glo, 72 hours); format: cell-based, human; details: Homo sapiens, T47D, 72 h, 72 hours treatment
Description: T47D cells were purchased from American Type Cell Culture (ATCC Cat #HTB-133) and then seeded on poly-D-lysine coated, black clear-bottom 384-well plates at 3000/well in 25 μL Dulbecco's Modified Eagle Medium (DMEM) supplemented with 10% w/w Fetal bovine serum (FBS), 0.2 units/mL recombinant human insulin (Gibco Cat #12585014), and 1% w/w Pen-Strep. Pen-Strep is a commercially available mixture of penicillin G and streptomycin, which is used in mammalian cell culture media to prevent bacterial contamination. Dulbecco's Modified Eagle Medium (DMEM) supplemented with 10% w/w fetal bovine serum (FBS), 0.2 units/mL recombinant human insulin, and 1% w/w Pen-Strep is herein referred to as Treatment Medium. Following seeding of cells in the plates, the plates were spun at 300×g for 30 seconds, then equilibrated to room temperature for 30 minutes, and then deposited in a humidified tissue culture incubator maintained at 37° C. with 5% CO2.
At 24 hours after seeding of the cells, dilutions of test compound were prepared in DMSO and dissolved in Treatment Medium, to achieve a final DMSO concentration of 0.5% w/w, thereby providing the Test Compound Solution. A 25 μL aliquot of the Test Compound Solution was added to cells in the well plates. An equal volume of a solution containing DMSO and Treatment Medium was used as a negative control. Following treatment of cells with Test Compound Solution or said equal volume of a solution containing DMSO and Treatment Medium, the plates were spun at 300×g for 30 seconds, and then left in an incubator for 72 hours.
At the end of the treatment duration, cell viability was quantified with CellTiter-Glo 2.0 reagent (Promega Cat #G9243). For this purpose, plates were equilibrated to room temperature for 30 minutes, and then 25 μL of CellTiter-Glo 2.0 reagent was added to cells in the plate wells. Plates were then agitated on a shaker for two minutes at 500 rpm and subsequently incubated at room temperature for 10 minutes. Following incubation, the plates were spun at 3000×g for 30 seconds, then sealed with an optical adhesive cover, and luminescence readings were measured with an EnVision Plate Reader (Perkin Elmer).
Data was normalized using zero luminescence for baseline. A four-parameter non-linear regression curve fit was applied to dose-response data in GraphPad Prism data analysis software to determine the half-maximal growth inhibitory concentration (GI50) for each test compound.

[1] = tested on: T-Rex 293 cell line SC3 cells lacking increased expression of androgen receptor protein; test: Cellular growth inhibition assay, T-Rex 293 SC3 cells without doxycycline (CellTiter-Glo, 72 hours); format: cell-based; details: 72 h, T-Rex 293 cell line SC3 cells not exposed to doxycycline (lacking increased androgen receptor expression)
Procedure, shortened: (§1)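 Growth inhibition is measured in an inducible AR-expressing T-Rex 293 clone, SC3, cultured with or without 10 ng/mL doxycycline in hormone-depleted medium. Test compounds are applied for 72 hours. GI50 values derive from CellTiter-Glo 2.0 signal fitted by four-parameter regression.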

[2] = tested on: T-Rex 293 cell line SC3 cells having increased expression of androgen receptor protein due to exposure to doxycycline; test: Cellular growth inhibition assay, T-Rex 293 SC3 cells with doxycycline (CellTiter-Glo, 72 hours); format: cell-based; details: 72 h, T-Rex 293 SC3 cells with increased androgen receptor expression due to doxycycline (10 ng/mL)
Procedure, shortened: as §1

SMILES | GI50 (VCaP cells) | GI50 (T47D cells) | GI50 [1] | GI50 [2]
Cc1sc2c(c1C)C(c1ccc(CN3CCN(C(=O)c4ccc(C(=O)N[C@H]5CC[C@H](Oc6ccc(C#N)c(Cl)c6)CC5)nn4)CC3)cc1)=N[C@@H](Cc1ncco1)c1nnc(C)n1-2 [I-242] | < 500 nM | < 500 nM | < 500 nM | < 500 nM
CCNC(=O)C[C@@H]1N=C(c2ccc(N(C)CCC3CCN(c4ccc(C(=O)N[C@H]5CC[C@H](Oc6ccc(C#N)c(Cl)c6)CC5)nn4)CC3)cc2)c2c(sc(C)c2C)-n2c(C)nnc21 [I-34] | 500 to 1500 nM | 500 to 1500 nM | 500 to 1500 nM | < 500 nM
Cc1sc2c(c1C)C(c1ccc(N3CCC[C@H](C(=O)N4CCC[C@@H](c5ccc(C(=O)N[C@H]6CC[C@H](Oc7ccc(C#N)c(Cl)c7)CC6)nn5)C4)C3)cc1)=N[C@@H](Cc1ncco1)c1nnc(C)n1-2 [I-302] | 500 to 1500 nM | < 500 nM | < 500 nM | < 500 nM
Cc1sc2c(c1C)C(c1ccc(OC[C@H]3CC[C@@]4(CCCN(c5ccc(C(=O)N[C@H]6CC[C@H](Oc7ccc(C#N)c(Cl)c7)CC6)nn5)C4)C3)cc1)=N[C@@H](Cc1ncco1)c1nnc(C)n1-2 [I-102] | < 500 nM | < 500 nM | < 500 nM | < 500 nM
Cc1sc2c(c1C)C(c1ccc(O[C@H]3C[C@H](OC4CCN(c5ccc(C(=O)N[C@H]6CC[C@H](Oc7ccc(C#N)c(Cl)c7)CC6)nn5)CC4)C3)cc1)=N[C@@H](Cc1ncco1)c1nnc(C)n1-2 [I-90] | < 500 nM | < 500 nM | < 500 nM | < 500 nM
Cc1sc2c(c1C)C(c1ccc(OC[C@H]3CC[C@@]4(CCCN(c5ccc(C(=O)N[C@H]6CC[C@H](Oc7ccc(C#N)c(Cl)c7)CC6)nn5)C4)C3)cn1)=N[C@@H](Cc1ncco1)c1nnc(C)n1-2 [I-406] | < 500 nM | < 500 nM | < 500 nM | < 500 nM
Cc1sc2c(c1C)C(c1ccc([C@H]3C[C@H](C4CCN(c5ccc(C(=O)N[C@H]6CC[C@H](Oc7ccc(C#N)c(Cl)c7)CC6)nn5)CC4)C3)cc1)=N[C@@H](Cc1ncco1)c1nnc(C)n1-2 [I-373] | < 500 nM | < 500 nM | > 3000 nM | < 500 nM
Cc1sc2c(c1C)C(c1ccc(OC3CN(C4CCN(c5ccc(C(=O)N[C@H]6CC[C@H](Oc7ccc(C#N)c(Cl)c7)CC6)nn5)C4)C3)cc1)=N[C@@H](Cc1ncco1)c1nnc(C)n1-2 (stereo partly shown) [I-101] | < 500 nM | < 500 nM | < 500 nM | < 500 nM
Cc1sc2c(c1C)C(c1ccc(CC3CC(C4CCCN(c5ccc(C(=O)N[C@H]6CC[C@H](Oc7ccc(C#N)c(Cl)c7)CC6)nn5)C4)C3)cc1)=N[C@@H](Cc1ncco1)c1nnc(C)n1-2 (stereo partly shown) [I-122] | < 500 nM | < 500 nM | < 500 nM | < 500 nM
Cc1sc2c(c1C)C(c1ccc(OC3CC4(C3)CC3(CCN(c5ccc(C(=O)N[C@H]6CC[C@H](Oc7ccc(C#N)c(Cl)c7)CC6)nn5)CC3)C4)cc1)=N[C@@H](C)c1nnc(C)n1-2 [I-435] | < 500 nM | > 3000 nM | > 3000 nM | < 500 nM
Cc1sc2c(c1C)C(c1ccc(C#C[C@H]3C[C@]4(CCCN(c5ccc(C(=O)N[C@H]6CC[C@H](Oc7ccc(C#N)c(Cl)c7)CC6)nn5)C4)C3)cc1)=N[C@@H](C)c1nnc(C)n1-2 [I-337] | < 500 nM | 500 to 1500 nM | 500 to 1500 nM | < 500 nM
Cc1sc2c(c1C)C(c1ccc(N3CCC4(CC3)CCN(c3ccc(C(=O)N[C@H]5CC[C@H](Oc6ccc(C#N)c(Cl)c6)CC5)nn3)C4)cc1)=N[C@@H](Cc1ncco1)c1nnc(C)n1-2 [I-368] | < 500 nM | < 500 nM | < 500 nM | < 500 nM
Cc1sc2c(c1C)C(c1ccc(N3CCN(C(=O)c4ccc(C(=O)N[C@H]5CC[C@H](Oc6ccc(C#N)c(Cl)c6)CC5)nn4)CC3)cc1)=N[C@@H](Cc1ncco1)c1nnc(C)n1-2 [I-250] | > 3000 nM | 500 to 1500 nM | > 3000 nM | < 500 nM
Cc1sc2c(c1C)C(c1ccc(C[C@H]3CCC4CN(c5ccc(C(=O)N[C@H]6CC[C@H](Oc7ccc(C#N)c(Cl)c7)CC6)nn5)CCN4C3)cc1)=N[C@H](Cc1ncco1)c1nnc(C)n1-2 (stereo partly shown) [I-260] | < 500 nM | < 500 nM | < 500 nM | < 500 nM
Cc1sc2c(c1C)C(c1ccc(CC[C@H]3CC[C@@]4(CCCN(c5ccc(C(=O)N[C@H]6CC[C@H](Oc7ccc(C#N)c(Cl)c7)CC6)nn5)C4)C3)cc1)=N[C@@H](Cc1ncco1)c1nnc(C)n1-2 [I-213] | > 3000 nM | > 3000 nM | > 3000 nM | > 3000 nM
Cc1sc2c(c1C)C(c1ccc(C(=O)N3CCN(Cc4ccc(C(=O)N[C@H]5CC[C@H](Oc6ccc(C#N)c(Cl)c6)CC5)nn4)CC3)cc1)=N[C@H](Cc1ncco1)c1nnc(C)n1-2 [I-291] | > 3000 nM | > 3000 nM | > 3000 nM | < 500 nM
Cc1sc2c(c1C)C(c1ccc(OC3CC4(CCN(c5ccc(C(=O)N[C@H]6CC[C@H](Oc7ccc(C#N)c(Cl)c7)CC6)nn5)CC4)C3)cc1)=N[C@@H](CC(C)(C)O)c1nnc(C)n1-2 [I-245] | < 500 nM | > 3000 nM | > 3000 nM | < 500 nM
Cc1sc2c(c1C)C(c1ccc(N3CCC4(CCCN(c5ccc(C(=O)N[C@H]6CC[C@H](Oc7ccc(C#N)c(Cl)c7)CC6)nn5)C4)CC3)cc1)=N[C@@H](Cc1ncco1)c1nnc(C)n1-2 [I-367] | < 500 nM | < 500 nM | < 500 nM | < 500 nM
Cc1sc2c(c1C)C(c1ccc(C3CCC(N4CCCN(c5ccc(C(=O)N[C@H]6CC[C@H](Oc7ccc(C#N)c(Cl)c7)CC6)nn5)CC4)CC3)cc1)=N[C@H](Cc1ncco1)c1nnc(C)n1-2 (stereo partly shown) [I-225] | < 500 nM | < 500 nM | < 500 nM | < 500 nM
Cc1sc2c(c1C)C(c1ccc(NCC(=O)N3CCC(c4ccc(C(=O)N[C@H]5CC[C@H](Oc6ccc(C#N)c(Cl)c6)CC5)nn4)CC3)cc1)=N[C@H](Cc1ncco1)c1nnc(C)n1-2 [I-248] | < 500 nM | < 500 nM | 500 to 1500 nM | < 500 nM
Cc1sc2c(c1C)C(c1ccc(OC3CC4(CCN(c5ccc(C(=O)N[C@H]6CC[C@H](Oc7ccc(C#N)c(Cl)c7)CC6)nn5)CC4)C3)cc1)=N/C(=C/c1ncco1)c1nnc(C)n1-2 [I-135, N-[4-(3-chloro-4-cyano-phenoxy)cyclohexyl]-6-[2-[4-[(9E)-4,5,13-trimethyl-9-(oxazol-2-ylmethylene)-3-thia-1,8,11,12-tetrazatricyclo[8.3.0.02,6]trideca-2(6),4,7,10,12-pentaen-7-yl]phenoxy]-7-azaspiro[3.5]nonan-7-yl]pyridazine-3-carboxamide] | < 500 nM | > 3000 nM | > 3000 nM | < 500 nM
Cc1sc2c(c1C)C(c1ccc(C#CC3CC4(C3)CN(c3ccc(C(=O)N[C@H]5CC[C@H](Oc6ccc(C#N)c(Cl)c6)CC5)nn3)C4)nc1)=N[C@@H](C)c1nnc(C)n1-2 [I-426] | < 500 nM | 500 to 1500 nM | < 500 nM | < 500 nM
Cc1sc2c(c1C)C(c1ccc(OC[C@@H]3CCCN(c4ccc(C(=O)N[C@H]5CC[C@H](Oc6ccc(C#N)c(Cl)c6)CC5)nn4)C3)cc1)=N[C@@H](Cc1ncco1)c1nnc(C)n1-2 [I-218] | < 500 nM | 500 to 1500 nM | < 500 nM | < 500 nM
Cc1sc2c(c1C)C(c1ccc(OC[C@H]3CC[C@]4(CCCN(c5ccc(C(=O)N[C@H]6CC[C@H](Oc7ccc(C#N)c(Cl)c7)CC6)nn5)C4)C3)nc1)=N[C@@H](Cc1ncco1)c1nnc(C)n1-2 [I-329] | < 500 nM | > 3000 nM | > 3000 nM | < 500 nM
Cc1sc2c(c1C)C(c1ccc(C(=O)N3CCN(C(=O)c4ccc(C(=O)N[C@H]5CC[C@H](Oc6ccc(C#N)c(Cl)c6)CC5)nn4)CC3)cc1)=N[C@H](Cc1ncco1)c1nnc(C)n1-2 [I-239] | 1500 to 3000 nM | > 3000 nM | > 3000 nM | < 500 nM

Reference: patent US20260109707A1, “HETEROBIFUNCTIONAL COMPOUNDS AND METHODS OF TREATING DISEASE” (Halda Therapeutics OpCo. Inc., priority 2022, published 2026)
